Here are results for nine molecules from PubChem BioAssay (NCI).

Among the test systems are KM20L2 colon; LXFL 529 NSCLC; RXF-631 renal; M19-MEL melanoma; P388/ADR leukemia; SN12K1 renal; P388 leukemia; HS 578T breast.
Test in all cases: NCI tumour cell line growth inhibition, 48 h

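Following 48 hours of exposure in 96-well plates, responses at five concentrations were used to interpolate endpoints linearly. GI50 = concentration required for 50% inhibition of growth. TGI: total growth inhibition.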 Bounds are passed on as bounds.

For the molecule `NCCCNCCCCN(CCCN)/[N+]([O-])=N\O`, the TGI in the experiment with KM20L2 colon, with LXFL 529 NSCLC, in the experiment on RXF-631 renal and with M19-MEL melanoma was over 100 µM throughout.

As to `C1=CC=C2NCCCNC3=CC=CC=CC3=NCCCN=C2C=C1`, the TGI with KM20L2 colon, in the experiment with LXFL 529 NSCLC, with RXF-631 renal and with M19-MEL melanoma was over 100 µM in each case.

Regarding `COCCCNC(=O)CC(=O)NCCCOC`, the TGI in the experiment on KM20L2 colon, with LXFL 529 NSCLC, in the experiment on RXF-631 renal and with M19-MEL melanoma was over 100 µM throughout.

`CCCCCCCCCCCC1CCCC(C)N1` (centres undefined): the TGI with KM20L2 colon is 85.9 µM; with P388/ADR leukemia it was 54.7 µM; in the experiment with SN12K1 renal it was 86.4 µM; in the experiment on P388 leukemia, 23.9 µM; in the experiment with HS 578T breast, 26.2 µM; with M19-MEL melanoma, 130 µM. The GI50 with HS 578T breast is 8.6 µM.

Take `CCC(=O)c1c(NOC2OC(COC(C)=O)C(OC(C)=O)C(OC(C)=O)C2OC(C)=O)nc(OC)n(C)c1=O` (centres undefined): the TGI with KM20L2 colon, in the experiment with LXFL 529 NSCLC, in the experiment with RXF-631 renal and with M19-MEL melanoma was over 100 µM in each case.

Regarding `CS(=O)(=O)N(N(CCCl)S(=O)(=O)c1ccccc1)S(C)(=O)=O`, the TGI in the experiment with KM20L2 colon, in the experiment on LXFL 529 NSCLC, in the experiment on RXF-631 renal and in the experiment with M19-MEL melanoma was over 100 µM each time.

Consider `O=[N+]([O-])c1cccc(-c2oc(C=Nc3ccccc3)c([N+](=O)[O-])c2-c2cccc([N+](=O)[O-])c2)c1`, for which the TGI in the experiment with KM20L2 colon, in the experiment with LXFL 529 NSCLC, with RXF-631 renal and in the experiment with M19-MEL melanoma was over 100 µM in each case.

In the case of `O=C(Nc1nc2ncn(CCNCc3ccccc3)c2c(=O)[nH]1)c1ccccc1`, the TGI in the experiment with KM20L2 colon, with LXFL 529 NSCLC, in the experiment on RXF-631 renal and with M19-MEL melanoma was over 100 µM throughout.

For `CC1C[C@@H]2C(=O)NC(=O)[C@@H]2c2c1c1ccccc1n2C` (some centres undefined), the TGI in the experiment on KM20L2 colon, in the experiment with LXFL 529 NSCLC, in the experiment with RXF-631 renal and in the experiment on M19-MEL melanoma was over 100 µM each time.
